Measurements published in patent publication US7585859B2, “PDE4B inhibitors and uses therefor” (Plexxikon, Inc., priority 2004, dated 2009).

target: T1, PDE4B: The catalytic domain of human PDE4B from S152-S528 (Homo sapiens, UniProt Q07343); test: PDE4 IC50 determination by Scintillation Proximity Assay, PDE4B; format: biochemical; conditions: Table 1B, Formula I compounds; read-out: IC50 PDE4B
T1 construct: His6 (N); thrombin cleavage site (N); made in house; host or cells: E. coli
Procedure: IC50s were determined by Scintillation Proximity Assay (SPA). The principle of the assay is based on the fact that cAMP, the PDE4 substrate, binds weakly to Yittrium Silicate SPA beads, whereas AMP, the product of PDE4 hydrolysis binds strongly. Thus, the extent of PDE4 hydrolysis of a sample of [^3H]cAMP can be measured because only the
[^3H]AMP produced by PDE4 hydrolysis will bind to the SPA beads and produce a scintillation signal.
PDE4 enzymes used for IC50 assays were:
Enzyme was stored in 50% glycerol at −20°.
In addition to the compound dilutions, each assay plate contained control wells with 1 μl of DMSO (to define 0% enzyme inhibition) or 1 μl of 200 μM roflumilast (to define 100% enzyme inhibition). […] Next, 10 μl of PDE4 enzyme in assay buffer was added and the plates were shaken for 30 s. at 1000 rpm to start the cAMP hydrolysis reaction. The concentrations of enzyme used were: PDE4B, 80 ng/ml; PDE4D, 4 ng/ml; PDE4B2, 2.5 μl of 50% glycerol stock/ml; PDE4D5 0.083 μl of 50% glycerol stock/ml. Assay plates were covered and incubated for 30 min. at 30°. […] The assay plates were covered with clear plastic film, centrifuged for 1 min. at 1000 RPM to settle the SPA beads, and counted using a Wallac TriLux scintillation counter. IC50's were calculated from the raw assay data by non-linear regression curve fitting using the Assay Explorer software package from MDL.

T1 sequence (Q07343 with tags, fused parts or gaps): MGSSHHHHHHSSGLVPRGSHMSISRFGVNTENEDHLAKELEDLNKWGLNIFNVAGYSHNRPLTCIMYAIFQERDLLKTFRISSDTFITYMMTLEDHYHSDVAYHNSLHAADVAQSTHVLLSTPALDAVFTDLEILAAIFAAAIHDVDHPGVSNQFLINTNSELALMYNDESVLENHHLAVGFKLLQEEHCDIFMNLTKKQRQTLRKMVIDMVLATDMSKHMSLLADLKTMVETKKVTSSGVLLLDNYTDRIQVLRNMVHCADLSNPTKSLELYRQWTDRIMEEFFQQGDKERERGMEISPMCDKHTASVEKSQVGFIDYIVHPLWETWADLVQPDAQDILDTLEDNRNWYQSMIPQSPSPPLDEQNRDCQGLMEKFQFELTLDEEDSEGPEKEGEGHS

Molecule	IC50 [µM]
3-Amino-2-(4-ethyl- phenylcarbamoyl)-6-oxo- 6,7-dihydro- thieno[2.3-b]pyridine- 5-carboxylic acid [Compound 1-6]	> 10
Cc1cc(=O)[nH]c2sc(C(=O)c3ccc(Br)cc3)c(N)c12 [Compound 1-3, 3-Amino-2-(4-bromo-benzoyl)-4-methyl-7H-thieno[2,3-b]pyridin-6-one]	> 10
CC(=O)C1=C(C)Nc2sc(C(N)=O)c(N)c2C1c1ccc(Cl)cc1 (centres unmarked) [Compound 1-5, 5-Acetyl-3-amino-4-(4-chloro-phenyl)-6-methyl-4,7-dihydro-thieno[2,3-b]pyridine-2-carboxylic acid amide]	< 10
CC(=O)C1=C(C)Nc2sc(C(N)=O)c(N)c2C1c1ccco1 (centres unmarked) [Compound 1-7, 5-Acetyl-3-amino-4-furan-2-yl-6-methyl-4,7-dihydro-thieno[2,3-b]pyridine-2-carboxylic acid amide]	> 10
CCc1ccc(C(=O)c2sc3c(c2N)C(c2cccnc2)C(C(C)=O)=C(C)N3)cc1 (centres unmarked) [Compound 1-8, 1-[3-Amino-2-(4-ethyl-benzoyl)-6-methyl-4-pyridin-3-yl-4,7-dihydro-thieno[2,3-b]pyridin-5-yl]-ethanone]	< 10
CC(=O)C1=C(C)Nc2sc(C(=O)c3cccc([N+](=O)[O-])c3)c(N)c2C1c1cccnc1 (centres unmarked) [Compound 1-9, 1-[3-Amino-6-methyl-2-(3-nitro-benzoyl)-4-pyridin-3-yl-4,7-dihydro-thieno[2,3-b]pyridin-5-yl]-ethanone]	< 10
NC(=O)c1sc2[nH]c(=O)c(C(=O)O)cc2c1N [Compound 1-10, 3-Amino-2-carbamoyl-6-oxo-6,7-diliydro-thieno[2,3-b]pyridine-5-carboxylic acid]	> 10
Cc1ccc(C2CC(=O)Nc3sc(C(N)=O)c(N)c32)cc1 (centres unmarked) [Compound 1-11, 3-Amino-6-oxo-4-p-tolyl-4,5,6,7-tetrahydro-thieno[2,3-b]pyridine-2-carboxylic acid amide]	> 10
CCNc1sc(C(=O)OC)c(N)c1C#N [Compound 1-13, 3-Amino-4-cyano-5-ethylamino-thiophene-2-carboxylic acid methyl ester]	< 10
NC(=O)c1sc(Nc2ccccc2)c(-c2nc3ccccc3[nH]2)c1N [Compound 1-14, 3-Amino-4-(1H-benzoimidazol-2-yl)-5-phenylamino-thiophene-2-carboxylic acid amide]	< 10
COc1ccc(C(=O)c2sc(Nc3ccc(Oc4ccccc4)cc3)c(C#N)c2N)cc1 [Compound 1-174]	< 10
N#Cc1c(NC2CCCC2)sc(C(=O)c2cc(C(=O)N3CCOCC3)no2)c1N [Compound 1-175, 4-Amino-2-cyclopentylamino-5-[3-(morpholine-4-carbonyl)-isoxazole-5-carbonyl]-thiophene-3-carbonitrile]	< 10
N#Cc1c(NC2CCCC2)sc(C(=O)c2ccc(-c3ccccc3)cc2)c1N [Compound 1-188, 4-Amino-5-(biphenyl-4-carbonyl)-2-cyclopentylamino-thiophene-3-carbonitrile]	< 10
N#Cc1c(Nc2ccccc2Cl)sc(C(=O)c2ccc(Oc3ccccc3)cc2)c1N [Compound 1-194, 4-Amino-2-(2-chloro-phenylamino)-5-(4-phenoxy-benzoyl)-thiophene-3-carbonitrile]	< 10

same assay, conditions: Table 3A, Formula III compounds; read-out: IC50 PDE4B

Molecule	IC50 [µM]
CSc1nccc(-c2ccc(S(=O)(=O)Nc3ccc(Br)c4cccnc34)s2)n1 [Compound 3-17, 5-(2-Methylsulfanyl-pyrimidin-4-yl)-thiophene-2-sulfonic acid (5-bromo-quinolin-8-yl)-amide]	< 10
COc1ccc(NS(=O)(=O)c2ccc(-c3ccnc(SC)n3)s2)c2ncccc12 [Compound 3-18, 5-(2-Methylsulfanyl-pyrimidin-4-yl)-thiophene-2-sulfonic acid (5-methoxy-quinolin-8-yl)-amide]	< 10

same assay, conditions: second part of Table 2B (2-23 to 2-103), column 3; column is PDE4B in first part; read-out: IC 50 vs. indicated assay h TNFα

Molecule	IC50 [µM]
Nc1nc(Nc2c(F)cccc2F)sc1C(=O)c1ccccc1 [Compound 2-44, [4-Amino-2-(2,6-difluoro-phenylamino)-thiazol-5-yl]-phenyl-methanone]	< 10
